Measured values reported in patent US20090258873A1, “Novel tetrahydropyridothiophenes” (priority 2005, published 2009).

Legend:
[1] = test system: RKO (RKOp27) human colon adenocarcinoma cells; test: Alamar Blue cell viability assay, anti-proliferative/cytotoxic activity on proliferating RKOp27 cells; assay type: cell-based; conditions: no Ponasterone A, 72 hours incubation, read-out: IC50 RKO p27 uninduced (proliferating)
Experimental: The anti-proliferative I cytotoxic activity of the compounds described herein, can be tested on subclones of RKO (RKOp27) human colon adenocarcinoma cells (Schmidt et al., Oncogene 19, 2423-2429; 2000) using the Alamar Blue cell viability assay (described in O'Brien et al. Eur J Biochem 267, 5421-5426, 2000). The compounds are dissolved as 20 mM solutions in dimethylsulfoxide (DMSO) and subsequently diluted in semi-logarithmic steps. DMSO dilutions are further diluted 1:100 into Dulbecco's modified Eagle's medium (DMEM) containing 10% fetal calf serum to a final concentration twice as much as the final concentration in the test. RKO subclones are seeded into 96 well flat bottom plates at a density of 5000 cells per well in a volume of 50 μl per well. 24 hours after seeding the 50 μl each of the compound dilutions in DMEM medium are added into each well of the 96 Well plate. Each compound dilution is tested as quadruplicates. Wells containing untreated control cells are filled with 50 μl DMEM medium containing 1% DMSO. The cells are then incubated with the substances for 72 hours at 37° C. in a hunified atmosphere containing 5% carbon dioxide. To determine the viability of the cells, 10 μl of an Alamar Blue solution (Biosource) are added and the fluorescence is measured at an extinction of 544 nm and an emission of 590 nm. For the calculation of the cell viability the emission value from untreated cells is set as 100% viability and the emission rates of treated cells are set in relation to the values of untreated cells. Viabilities are expressed as % values.
The corresponding IC50 values of the compounds for anti-proliferative/cytotoxic activity are determined from the concentration-effect curves.
Representative IC50 values for anti-proliferation/cytotoxicity determined in the mentioned assay follow from the following table A, in which the numbers of the compounds correspond to the numbers of the examples.

[2] = test system: RKO colon adenocarcinoma cells (RKOp27) arrested by ectopic p27Kip1; test: Alamar Blue cell viability assay on RKOp27 cells arrested by p27Kip1 expression induced with Ponasterone A (cell cycle specific mode of action); assay type: cell-based; conditions: Homo sapiens, RKOp27 cells arrested by p27Kip1 induced with 10 μM Ponasterone A, 72 hours incubation, read-out: IC50 RKO p27 induced (arrested)
Experimental: To determine the cell cycle specific mode of action, subclones of RKO colon adenocarcinoma cells (RKOp27 or RKOp21 as described by Schmidt et al. in Oncogene 19, 2423-2429; 2000) are seeded into 96 well flat bottom plates at a density of 15000 cells per well in a volume of 50 μl per well in DMEM growth medium with 10% FCS containing 10 μM Ponasterone A. 24 hours after seeding the 50 μl each of the compound dilutions in DMEM medium are added into each well of the 96 Well plate. Each compound dilution is tested as quadruplicates. Wells containing untreated control cells are filled with 50 μl DMEM medium containing 1% DMSO. The cells are then incubated with the substances for 72 hours at 37° C. in a humidified atmosphere containing 5% carbon dioxide. To determine the viability of the cells, 10 μl of an Alamar Blue solution (Biosource) are added and the fluorescence was measured at an extinction of 544 nm and an emission of 590 nm. For the calculation of the cell viability the emission value from untreated cells is set as 100% viability and the emission rates of treated cells are set in relation to the values of untreated cells. Viabilities are expressed as % values. Viability is compared of proliferating cells grown in the absence of the inducer Ponasterone A, versus viability of cells arrested by the expression of ectopic p27Kip1 induced by Ponasterone A.

| IC50 [2] [µM] | Structure (SMILES) | IC50 [1] [µM] |
| --- | --- | --- |
| > 100 | N#Cc1c(NC(=O)CCc2ccco2)sc2c1CCN(C(=O)CCn1ccnc1)C2 [Example 15, N-[3-Cyano-6-(3-Imidazo-1-yl-propanoyl)-4,5,6,7-tetrahydro-thieno[2,3-c]pyridin-2-yl]-3-furan-2-yl-propionamide] | ≤ 0.3 |
| > 100 | N#Cc1c(NC(=O)CCc2ccccc2)sc2c1CCN(C(=O)CCn1ccnc1)C2 [Example 16, N-[3-Cyano-6-(3-imidazol-1-yl-propanoyl)-4,5,6,7-tetrahydro-thieno[2,3-c]pyridin-2-yl]-3-phenyl-propionamide] | ≤ 0.3 |
| ≥ 40 | CN1CCN(CCC(=O)N2CCc3c(sc(NC(=O)CCc4ccccc4)c3C#N)C2)CC1 [Example 17, N-[3-Cyano-6-[3-(4-methyl-piperazin-1-yl)-propanoyl]-4,5,6,7-tetrahydro-thieno[2,3-c]pyridin-2-yl]-3-phenyl-propionamide] | 0.3 to 2 |
| > 100 | N#Cc1c(NC(=O)CCc2ccccc2)sc2c1CCN(C(=O)CCN1CCOCC1)C2 [Example 18, N-[3-Cyano-6-(3-morpholin-4-yl-propanoyl)-4,5,6,7-tetrahydro-thieno[2,3-c]pyridin-2-yl]-3-phenyl-propionamide] | 0.3 to 2 |
| > 100 | N#Cc1c(NC(=O)CCc2ccccc2)sc2c1CCN(C(=O)Cn1ccnc1)C2 [Example 19, N-[3-Cyano-6-(2-imidazol-1-yl-ethanoyl)-4,5,6,7-tetrahydro-thieno[2,3-c]pyridin-2-yl]-3-phenyl-propionamide] | 0.3 to 2 |
| > 100 | N#Cc1c(NC(=O)CCc2ccccc2)sc2c1CCN(C(=O)Cc1ccncc1)C2 [Example 20, N-[3-Cyano-6-(2-pyridin-4-yl-ethanoyl)-4,5,6,7-tetrahydro[2,3-c]pyridin-2-yl]-3-phenyl-propionamide] | ≤ 0.3 |
| > 100 | Cc1nc2ccccc2n1CCC(=O)N1CCc2c(sc(NC(=O)CCc3ccccc3)c2C#N)C1 [Example 21] | 0.3 to 2 |
| > 100 | CCCC(=O)N1CCc2c(sc(NC(=O)CCc3ccccc3)c2C#N)C1 [Example 28, N-(6-Butyryl-3-cyano-4,5,6,7-tetrahydro-thieno[2,3-c]pyridin-2-yl)-3-phenyl-propionamide] | ≤ 0.3 |
| > 100 | N#Cc1c(NC(=O)CCc2ccccc2)sc2c1CCN(C(=O)CCc1ccccn1)C2 [Example 30, N-[3-Cyano-6-(3-pyridin-2-yl-propanoyl)-4,5,6,7-tetrahydro-thieno[2,3-c]pyridin-2-yl]-3-phenyl-propionamide] | ≤ 0.3 |
| ≥ 10 | Cc1nccn1CCC(=O)N1CCc2c(sc(NC(=O)CCc3ccccc3)c2C#N)C1 [Example 33, N-{3-Cyano-6-[3-(2-methyl-imidazol-1-yl)propanoyl]-4,5,6,7-tetrahydro-thieno[2,3-c]pyridin-2-yl}-3-phenyl-propionamide] | 0.3 to 2 |
| ≥ 10 | Cn1ccnc1CCC(=O)N1CCc2c(sc(NC(=O)CCc3ccccc3)c2C#N)C1 [Example 35, N-{3-Cyano-4-[3-(1-methyl-1H-imidazo-2-yl)-propanoyl]-4,5,6,7-tetrahydro-thieno[2,3-c]pyridin-2-yl}-3-phenyl-propionamide] | ≤ 0.3 |
| > 100 | Cc1nccn1CC(=O)N1CCc2c(sc(NC(=O)CCc3ccccc3)c2C#N)C1 [Example 38, N-{3-Cyano-6-[2-(2-methyl-imidazol-1-yl)-ethanoyl]-4,5,6,7-tetrahydro-thieno[2,3-c]pyridin-2-yl}-3-phenyl-propionamide] | ≤ 0.3 |
| > 100 | N#Cc1c(NC(=O)CCc2ccccc2)sc2c1CCN(C(=O)CCc1ccncc1)C2 [Example 39, N-[3-Cyano-6-(3-pyridin-4-yl-propanoyl)-4,5,6,7-tetrahydro-thieno[2,3-c]pyridin-2-yl]-3-phenyl-propionamide] | ≤ 0.3 |
| > 100 | Cc1cn(CC(=O)N2CCc3c(sc(NC(=O)CCc4ccccc4)c3C#N)C2)cn1 [Example 41, N-{3-Cyano-6-[2-(4-methyl-imidazol-1-yl)-ethanoyl]-4,5,6,7-tetrahydro-thieno[2,3-c]pyridin-2-yl}-3-phenyl-propionamide] | ≤ 0.3 |
| ≥ 40 | Cc1cn(CC(=O)N2CCc3c(sc(NC(=O)CCc4ccccc4)c3C#N)C2)c(C)n1 [Example 43, N-{3-Cyano 6-[2-(2,4-dimethyl-imidazol-1-yl)-ethanoyl]-4,5,6,7-tetrahydro-thieno[2,3-c]pyridin-2-yl}-3-phenyl-propionamide] | 0.3 to 2 |
| ≥ 10 | Cc1cn(CCC(=O)N2CCc3c(sc(NC(=O)CCc4ccccc4)c3C#N)C2)cn1 [Example 45, N-[3-Cyano-6-[3-(4-methyl-imidazol-1-yl)-propanoyl]-4,5,6,7-tetrahydro-thieno[2,3-c]pyridin-2-yl]-3-phenyl-propionamide] | 0.3 to 2 |
| > 100 | N#Cc1c(NC(=O)CCC2CCCCC2)sc2c1CCN(C(=O)Cc1ccccn1)C2 [Example 53, N-[3-Cyano-6-(2-pyridin-2-yl-ethanoyl)-4,5,6,7-tetrahydro-thieno[2,3-c]pyridin-2-yl]-3-cyclohexyl-propionamide] | ≤ 0.3 |
| > 100 | N#Cc1c(NC(=O)CCC2CCCCC2)sc2c1CCN(C(=O)CCn1ccnc1)C2 [Example 58] | 0.3 to 2 |
